Laboratory results as given in US20150259344A1, “IMIDAZOLE DERIVATIVE” (DAINIPPON SUMITOMO PHARMA CO., LTD., priority 2012, published 2015).

Target: T1, human α7 nAChR (Homo sapiens, UniProt P36544)
T1 construct: expressed in transfected cells
Test: Evaluation of PAM activity with human α7 nACh receptor stably expressing cells (aequorin luminescence, FDSS7000)
Assay type: cell-based
Conditions: for activity at 10 µM: 10 μM test compound, read-out: α7PAM (%) @10 μM; for activity at 10 µM / activity at 1 µM: ACh at EC20, ratio of RLU (Max-Min) to control wells; for activity at 1 µM: 1 μM test compound (values marked *, footnote of Table 25), read-out: α7PAM (%) @1 μM
In short: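 Human α7 nAChR stable cells loaded with 4 μM Viviren (final) for 4 h at room temperature in the dark. Compounds in Hanks/20 mM HEPES/0.2% BSA were added and luminescence recorded on FDSS7000. PAM activity = RLU (Max-Min) ratio of test wells to control wells.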

T1 sequence (P36544 23-502): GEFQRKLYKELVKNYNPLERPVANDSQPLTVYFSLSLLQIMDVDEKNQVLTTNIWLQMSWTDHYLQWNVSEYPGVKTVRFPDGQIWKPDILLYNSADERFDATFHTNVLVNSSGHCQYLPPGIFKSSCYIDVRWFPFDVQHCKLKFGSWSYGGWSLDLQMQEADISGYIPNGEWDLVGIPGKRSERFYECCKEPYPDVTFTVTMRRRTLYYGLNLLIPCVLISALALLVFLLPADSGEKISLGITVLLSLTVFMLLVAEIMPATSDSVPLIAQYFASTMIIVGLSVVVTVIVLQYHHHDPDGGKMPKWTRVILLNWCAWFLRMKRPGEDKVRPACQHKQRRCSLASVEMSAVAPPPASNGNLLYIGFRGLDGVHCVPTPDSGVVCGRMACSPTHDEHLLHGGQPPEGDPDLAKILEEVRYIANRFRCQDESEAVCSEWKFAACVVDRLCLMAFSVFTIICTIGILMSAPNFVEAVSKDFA

SMILES | activity at 10 µM [%] | further results
Cc1c(-c2ccc(F)cc2)ncn1[C@H]1CC[C@@H](C(=O)NC2CCOCC2)CC1 [Example 381] | 377 | –
O=C(NC1CCCCC1)N1[C@@H]2CC[C@H]1C[C@@H](n1cnc(-c3ccc(F)cc3)c1)C2 [Example 382] | 222 | –
O=C(NC1CCCCC1)N1[C@@H]2CC[C@H]1C[C@@H](n1cnc(-c3ccccc3)c1)C2 [Example 383] | 598 | –
O=C(NC1CCC(F)(F)CC1)N1[C@@H]2CC[C@H]1C[C@@H](n1cnc(-c3ccc(F)cc3F)c1)C2 [Example 384] | – | activity at 1 µM: 652%
O=C(NC1CCCCC1)N1[C@@H]2CC[C@H]1C[C@@H](n1cnc(-c3ccc(F)cc3F)c1)C2 [Example 385] | – | activity at 1 µM: 218%
O=C(NC1CCC(F)(F)CC1)N1[C@@H]2CC[C@H]1C[C@@H](n1cnc(-c3cccc(F)c3F)c1)C2 [Example 386] | 880 | –
O=C(NC1CCCCC1)N1[C@@H]2CC[C@H]1C[C@@H](n1cnc(-c3cccc(F)c3F)c1)C2 [Example 387] | – | activity at 1 µM: 315%
O=C(NC1CCC(F)(F)CC1)N1[C@@H]2CC[C@H]1C[C@@H](n1cnc(-c3cc(F)ccc3F)c1)C2 [Example 388] | – | activity at 1 µM: 335%
O=C(NC1CCCCC1)N1[C@@H]2CC[C@H]1C[C@@H](n1cnc(-c3cc(F)ccc3F)c1)C2 [Example 389] | – | activity at 1 µM: 163%
O=C(NC1CCCCC1)N1[C@@H]2CC[C@H]1C[C@@H](n1cnc(-c3ccc(F)cc3)c1Cl)C2 [Example 390] | 683 | –
O=C(NC1CCC(F)(F)CC1)N1[C@@H]2CC[C@H]1C[C@@H](n1cnc(-c3ccc(F)cc3F)c1Cl)C2 [Example 394] | 455 | –
O=C(NC1CCOCC1)N1[C@@H]2CC[C@H]1C[C@@H](n1cnc(-c3ccc(F)cc3F)c1Cl)C2 [Example 395] | 869 | –
O=C(NC1CCC(F)(F)CC1)N1[C@@H]2CC[C@H]1C[C@@H](n1cnc(-c3cc(F)ccc3F)c1Cl)C2 [Example 396] | 585 | –
O=C(NC1CCOCC1)N1[C@@H]2CC[C@H]1C[C@@H](n1cnc(-c3cc(F)ccc3F)c1Cl)C2 [Example 397] | 522 | –
O=C(NC1CCC(F)(F)CC1)N1[C@@H]2CC[C@H]1C[C@@H](n1cnc(-c3cccc(F)c3F)c1Cl)C2 [Example 398] | 607 | –
O=C(NC1CCOCC1)N1[C@@H]2CC[C@H]1C[C@@H](n1cnc(-c3cccc(F)c3F)c1Cl)C2 [Example 399] | 891 | –
N#Cc1c(-c2ccc(F)cc2F)ncn1[C@H]1C[C@H]2CC[C@@H](C1)N2C(=O)NC1CCC(F)(F)CC1 [Example 402] | 498 | –
N#Cc1c(-c2cc(F)ccc2F)ncn1[C@H]1C[C@H]2CC[C@@H](C1)N2C(=O)NC1CCC(F)(F)CC1 [Example 403] | – | activity at 1 µM: 590%
N#Cc1c(-c2cccc(F)c2F)ncn1[C@H]1C[C@H]2CC[C@@H](C1)N2C(=O)NC1CCC(F)(F)CC1 [Example 404] | 292 | –
O=C(NC1CCCCC1)N1[C@@H]2CC[C@H]1C[C@H](n1cnc(-c3ccc(F)cc3)c1)C2 [Example 405] | 402 | –
O=C(NC1CCCCC1)N1[C@@H]2CC[C@H]1C[C@H](n1cnc(-c3ccccc3)c1)C2 [Example 406] | 629 | –
O=C(NC1CCC(F)(F)CC1)N1[C@@H]2CC[C@H]1C[C@H](n1cnc(-c3ccc(F)cc3F)c1)C2 [Example 407] | 904 | –

SMILES | activity at 10 µM [%] | further results
O=C(NC1CCCCC1)N1[C@@H]2CC[C@H]1C[C@H](n1cnc(-c3ccc(F)cc3F)c1)C2 [Example 408] | 140 | –
O=C(NC1CCC(F)(F)CC1)N1[C@@H]2CC[C@H]1C[C@H](n1cnc(-c3cccc(F)c3F)c1)C2 [Example 409] | 576 | –
O=C(NC1CCCCC1)N1[C@@H]2CC[C@H]1C[C@H](n1cnc(-c3cccc(F)c3F)c1)C2 [Example 410] | 197 | –
O=C(NC1CCCCC1)N1[C@@H]2CC[C@H]1C[C@H](n1cnc(-c3cc(F)ccc3F)c1)C2 [Example 411] | 229 | –
O=C(NC1CCC(F)(F)CC1)N1[C@@H]2CC[C@H]1C[C@H](n1cnc(-c3cc(F)ccc3F)c1)C2 [Example 412] | 423 | –
O=C(NC1CCC(F)(F)CC1)N1[C@@H]2CC[C@H]1C[C@H](n1cnc(-c3ccc(F)cc3F)c1Cl)C2 [Example 415] | 997 | –
O=C(NC1CCOCC1)N1[C@@H]2CC[C@H]1C[C@H](n1cnc(-c3ccc(F)cc3F)c1Cl)C2 [Example 416] | – | PAM activity for α7 nAChR (in words) (comparison across Tables 18 to 25): stronger PAM activity than others
O=C(NC1CCC(F)(F)CC1)N1[C@@H]2CC[C@H]1C[C@H](n1cnc(-c3cc(F)ccc3F)c1Cl)C2 [Example 419] | 913 | –
N#Cc1c(-c2ccc(F)cc2)ncn1[C@@H]1C[C@H]2CC[C@@H](C1)N2C(=O)NC1CCCCC1 [Example 421] | 426 | –
N#Cc1c(-c2ccc(F)cc2F)ncn1[C@@H]1C[C@H]2CC[C@@H](C1)N2C(=O)NC1CCC(F)(F)CC1 [Example 422] | 131 | –
N#Cc1c(-c2cc(F)ccc2F)ncn1[C@@H]1C[C@H]2CC[C@@H](C1)N2C(=O)NC1CCC(F)(F)CC1 [Example 423] | – | activity at 1 µM: 390%
N#Cc1c(-c2cccc(F)c2F)ncn1[C@@H]1C[C@H]2CC[C@@H](C1)N2C(=O)NC1CCC(F)(F)CC1 [Example 424] | 210 | –
O=C(C1CCC(F)(F)CC1)N1[C@@H]2CC[C@H]1C[C@@H](n1cnc(-c3ccc(F)cc3)c1)C2 [Example 425] | 155 | –
O=C(C1CCC(F)(F)CC1)N1[C@@H]2CC[C@H]1C[C@@H](n1cnc(-c3ccc(F)cc3F)c1)C2 [Example 426] | 308 | –
O=C(C1CCC(F)(F)CC1)N1[C@@H]2CC[C@H]1C[C@@H](n1cnc(-c3ccccc3F)c1)C2 [Example 427] | 305 | –
O=C(C1CCC(F)(F)CC1)N1[C@@H]2CC[C@H]1C[C@@H](n1cnc(-c3ccccc3)c1)C2 [Example 428] | 144 | –
O=C(C1CCC(F)(F)CC1)N1[C@@H]2CC[C@H]1C[C@@H](n1cnc(-c3cccc(F)c3F)c1)C2 [Example 429] | – | activity at 1 µM: 111%
O=C(C1CCC(F)(F)CC1)N1[C@@H]2CC[C@H]1C[C@@H](n1cnc(-c3cc(F)ccc3F)c1)C2 [Example 430] | – | activity at 1 µM: 110%
O=C(C1CCC(F)(F)CC1)N1[C@@H]2CC[C@H]1C[C@@H](n1cnc(-c3ccc(F)cc3)c1Cl)C2 [Example 431] | 836 | –
O=C(C1CCC(F)(F)CC1)N1[C@@H]2CC[C@H]1C[C@@H](n1cnc(-c3ccccc3F)c1Cl)C2 [Example 434] | 512 | –
O=C(C1CCOCC1)N1[C@@H]2CC[C@H]1C[C@@H](n1cnc(-c3ccc(F)cc3F)c1Cl)C2 [Example 436] | 300 | –
O=C(C1CCC(F)(F)CC1)N1[C@@H]2CC[C@H]1C[C@@H](n1cnc(-c3cc(F)ccc3F)c1Cl)C2 [Example 437] | 533 | –

SMILES | activity at 10 µM [%] | further results
O=C(C1CCOCC1)N1[C@@H]2CC[C@H]1C[C@@H](n1cnc(-c3cc(F)ccc3F)c1Cl)C2 [Example 438] | 235 | –
O=C(C1CCC(F)(F)CC1)N1[C@@H]2CC[C@H]1C[C@@H](n1cnc(-c3cccc(F)c3F)c1Cl)C2 [Example 439] | 813 | –
O=C(C1CCOCC1)N1[C@@H]2CC[C@H]1C[C@@H](n1cnc(-c3cccc(F)c3F)c1Cl)C2 [Example 440] | 508 | –
N#Cc1c(-c2ccc(F)cc2F)ncn1[C@H]1C[C@H]2CC[C@@H](C1)N2C(=O)C1CCC(F)(F)CC1 [Example 443] | – | activity at 1 µM: 368%
N#Cc1c(-c2cc(F)ccc2F)ncn1[C@H]1C[C@H]2CC[C@@H](C1)N2C(=O)C1CCC(F)(F)CC1 [Example 444] | 208 | –
N#Cc1c(-c2cccc(F)c2F)ncn1[C@H]1C[C@H]2CC[C@@H](C1)N2C(=O)C1CCC(F)(F)CC1 [Example 445] | 272 | –
O=C(C1CCC(F)(F)CC1)N1[C@@H]2CC[C@H]1C[C@H](n1cnc(-c3ccc(F)cc3)c1)C2 [Example 446] | 143 | –
O=C(C1CCC(F)(F)CC1)N1[C@@H]2CC[C@H]1C[C@H](n1cnc(-c3ccc(F)cc3F)c1)C2 [Example 447] | 268 | –
O=C(C1CCC(F)(F)CC1)N1[C@@H]2CC[C@H]1C[C@H](n1cnc(-c3ccccc3F)c1)C2 [Example 448] | 276 | –
O=C(C1CCC(F)(F)CC1)N1[C@@H]2CC[C@H]1C[C@H](n1cnc(-c3ccccc3)c1)C2 [Example 449] | 183 | –
O=C(C1CCC(F)(F)CC1)N1[C@@H]2CC[C@H]1C[C@H](n1cnc(-c3cccc(F)c3F)c1)C2 [Example 450] | 128 | –
O=C(C1CCC(F)(F)CC1)N1[C@@H]2CC[C@H]1C[C@H](n1cnc(-c3cc(F)ccc3F)c1)C2 [Example 451] | – | activity at 1 µM: 143%
O=C(C1CCC(F)(F)CC1)N1[C@@H]2CC[C@H]1C[C@H](n1cnc(-c3cccc(F)c3F)c1Cl)C2 [Example 457] | 865 | –
O=C(C1CCOCC1)N1[C@@H]2CC[C@H]1C[C@H](n1cnc(-c3cccc(F)c3F)c1Cl)C2 [Example 458] | 434 | –
O=C(C1CCC(F)(F)CC1)N1[C@@H]2CC[C@H]1C[C@H](n1cnc(-c3cc(F)ccc3F)c1Cl)C2 [Example 459] | 730 | –
O=C(C1CCOCC1)N1[C@@H]2CC[C@H]1C[C@H](n1cnc(-c3cc(F)ccc3F)c1Cl)C2 [Example 460] | 390 | –
N#Cc1c(-c2ccc(F)cc2)ncn1[C@@H]1C[C@H]2CC[C@@H](C1)N2C(=O)C1CCC(F)(F)CC1 [Example 461] | 162 | –
N#Cc1c(-c2ccc(F)cc2F)ncn1[C@@H]1C[C@H]2CC[C@@H](C1)N2C(=O)C1CCC(F)(F)CC1 [Example 462] | 384 | –
N#Cc1c(-c2cccc(F)c2F)ncn1[C@@H]1C[C@H]2CC[C@@H](C1)N2C(=O)C1CCC(F)(F)CC1 [Example 463] | – | activity at 1 µM: 181%
N#Cc1c(-c2cc(F)ccc2F)ncn1[C@@H]1C[C@H]2CC[C@@H](C1)N2C(=O)C1CCC(F)(F)CC1 [Example 464] | – | activity at 1 µM: 124%
